Among the data in patent US20150299125A1, “PRODRUG BIPYRIDYLAMINOPYRIDINES AS SYK INHIBITORS” (MERCK SHARP & DOHME CORP., priority 2012, published 2015) are IC50 and solubility values, retold here.

Data set [1] has as its target T1, recombinant human GST-Syk (Homo sapiens, UniProt P43405).
T1 construct: purchased Carna Biosciences 08-176
Put plainly: Homogeneous Time-Resolved Fluorescence (HTRF) assay for the recombinant human Syk enzyme. The format is biochemical. As to conditions: recombinant human GST-Syk 5 pM, ATP 25 μM, read-out: IC50. The gist of the method:
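Recombinant GST-hSyk phosphorylates a biotinylated peptide for 45 min at room temperature. Quenched with EDTA buffer containing 2 nM Eu-anti-phosphotyrosine antibody and 70 nM SA-APC; HTRF read after 30 min.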

A short description of data set [2]: Solubility in biorelevant fasted state simulated intestinal fluid (FaSSIF). Type of data set: physicochemical. How it is done: Solubility in Biorelevant Fasted State Simulated Intestinal Fluid (FaSSIF):
A 10 mM DMSO stock solution of compound to be tested is used. A 100 μM standard solution is generated by diluting 2.5 μL of the 10 mM stock solution with 247.5 μL of diluent (10% DMSO/10% MeCN/80% MeOH, v/v/v). A solubility solution is generated by diluting 5 μL of the 10 mM stock solution with 245 μL of FaSSIF (maximum solubility approximately 200 μM). […] The equilibrated solubility solution is filtered by centrifugation (3 minutes at 4000 rpm) using a 0.45 µm filter with a polypropylene membrane. The standard solution and the filtered equilibrated solubility solution are analyzed by HPLC/DAD. The solubility value is calculated by the following equation:
Solubility=(Peak area of sample/Peak area of standard)(Standard concentration)

The mark [3] stands for this setting: 25 °C, fassif, kinetic from dmso stock, Solubility.

pIC50: −log10 of the molar value. ≈ marks a conversion by molar mass, not a printed value. Like-named read-outs stand apart in the source and are kept apart here.

By pIC50 is commonly meant −log10 of the IC50, conventionally taken in molar units. By solubility is commonly meant the concentration that dissolves in the medium under given conditions. As for `Cc1cc(Nc2cc(C(F)F)ccn2)nc(-c2ccc([C@](C)(O)[C@H]3CC[C@H](C(=O)O[C@H]4C[C@H](N)C4)CC3)nc2)c1` [Example 1-19, trans-3-aminocyclobutyl trans-4-[(1R)-1-(6-{[4-(difluoromethyl)pyridin-2-yl]amino}-4-methyl-2,3′-bipyridin-6′-yl)-1-hydroxyethyl] cyclohexanecarboxylate], in data set [1], the pIC50 is 8.36. The same compound yielded a solubility in data set [2] (setting [3]) of 98 µM (≈ 54.1 µg/mL).

Take `Cc1cc(Nc2cc(C(F)F)ccn2)nc(-c2ccc([C@](C)(O)[C@H]3CC[C@H](C(=O)OCOC(=O)CCO)CC3)nc2)c1` [Example 3-9, [(3-hydroxypropanoyl)oxy] methyl trans-4-[(1R)-1-(6-{[4-(difluoromethyl)pyridin-2-yl]amino}-4-methyl-2,3′-bipyridin-6′-yl)-1-hydroxyethyl]cyclohexane carboxylate]: the pIC50 in data set [1] is 8.32. Further, in data set [2] (setting [3]), the solubility is 160 µM (≈ 93.5 µg/mL).

With `Cc1cc(Nc2cc(C(F)F)ccn2)nc(-c2ccc([C@](C)(O)[C@H]3CC[C@H](C(=O)OCOC(=O)OCCCCCCN)CC3)nc2)c1` [Example 2-1, ({[(6-Aminohexyl)oxy]carbonyl}oxy)methyl trans-4-[(1R)-1-(6-{[4-(difluoromethyl)pyridin-2-yl]amino}-4-methyl-2,3′-bipyridin-6′-yl)-1-hydroxyethyl]cyclohexanecarboxylate], the pIC50 in data set [1] was 7.70. This compound also showed a solubility in data set [2] (setting [3]) of 167 µM (≈ 110 µg/mL).

`Cc1cc(Nc2cc(C(F)F)ccn2)nc(-c2ccc([C@](C)(O)[C@H]3CC[C@H](C(=O)OCC[S@+](C)[O-])CC3)nc2)c1` (single isomer, unassigned) [Example 7-1b]: the pIC50 in data set [1] is 8.48. Further, the solubility in data set [2] (setting [3]) was 52 µM (≈ 29.8 µg/mL).

For `CC(=O)C1CC[N+](C)(COC(=O)[C@H]2CC[C@H]([C@@](C)(O)c3ccc(-c4cc(C)cc(Nc5cc(C(F)F)ccn5)n4)cn3)CC2)CC1` (stereo partly drawn) [Example 5-17, 4-acetyl-1-{[({trans-4-[(1R)-1-(6-{[4-(difluoromethyl)pyridin-2-yl]amino}-4-methyl-2,3′-bipyridin-6′-yl)-1-hydroxyethyl]cyclohexyl}carbonyl)oxy]methyl}-1-methylpiperidinium], in data set [1], the pIC50 is 8.80. This compound showed a solubility in data set [2] (setting [3]) of 45 µM.

Consider `COCCN(C)C(=O)OC(C)OC(=O)[C@H]1CC[C@H]([C@@](C)(O)c2ccc(-c3cc(C)cc(Nc4cc(C(F)F)ccn4)n3)cn2)CC1` (single isomer, unassigned) [Example 4-1a], for which the pIC50 in data set [1] is 7.61. The solubility in data set [2] (setting [3]) is 40 µM (≈ 25.7 µg/mL).

As to `Cc1cc(Nc2cc(C(F)F)ccn2)nc(-c2ccc([C@](C)(O)[C@H]3CC[C@H](C(=O)OCCC(C)(C)O)CC3)nc2)c1` [Example 1-12, 3-hydroxy-3-methylbutyl trans-4-[(1R)-1-(6-{[4-(difluoromethyl)pyridin-2-yl]amino}-4-methyl-2,3′-bipyridin-6′-yl)-1-hydroxyethyl] cyclohexanecarboxylate], the negative logarithm of the IC50 (pIC50) in data set [1] was 8.00. Besides, the solubility in data set [2] (kinetic from dmso stock, FaSSIF, equilibrated overnight at 25° C., maximum solubility approximately 200 μM, read-out: Solubility) was 76 µM (≈ 43.2 µg/mL).

For `CSCCCOC(=O)[C@H]1CC[C@H]([C@@](C)(O)c2ccc(-c3cc(C)cc(Nc4cc(C(F)F)ccn4)n3)cn2)CC1` [Example 1-9, 3-(methylsulfanyl)propyl trans-4-[(1R)-1-(6-{[4-(difluoromethyl)pyridin-2-yl]amino}-4-methyl-2,3′-bipyridin-6′-yl)-1-hydroxyethyl] cyclohexanecarboxylate], the pIC50 in data set [1] was 7.56. The concentration in solution in data set [2] (setting [3]) (solubility) was 43 µM (≈ 24.5 µg/mL).

As for `Cc1cc(Nc2cc(C(F)F)ccn2)nc(-c2ccc([C@](C)(O)[C@H]3CC[C@H](C(=O)O[C@H]4C[C@H](N)C4)CC3)nc2)c1` [Example 1-5, trans-3-Aminocyclobutyl trans-4-[(1R)-1-(6-{[4-(difluoromethyl)pyridin-2-yl]amino}-4-methyl-2,3′-bipyridin-6′-yl)-1-hydroxyethyl]cyclohexanecarboxylate], the pIC50 in data set [1] was 8.36. In data set [2] (read-out: Solubility), the solubility was 164 µM (≈ 90.5 µg/mL).
